Measured values from patent publication US4400199A, “Thiolcarbamate compounds and their use as herbicides” (priority 1981, dated 1983).
≈ marks a conversion by molar mass, not a printed value. Where “and” joins values, the source holds several entries; their conditions need not be identical. Equal values may be shown once. Read-outs that look alike come from different tables or passages of the source.

Legend:
[1] = test system: barnyard grass (Echinochloa crus-galli); test: Experiment 1: herbicidal effects against barnyard grass (pot test, emulsifiable concentrate); type: in vivo
barnyard grass = test: Experiment 2: herbicidal effects against barnyard grass (pot test, granules); type: in vivo, Echinochloa crus-galli; conditions: 2.5 leaf-stage, 25 days
broad-leaf weeds = test: Experiment 2: herbicidal effects against broad-leaf weeds (pot test, granules); type: in vivo; conditions: 25 days
[2] = test system: Hotarui (Scirpus juncoides); test: Experiment 2: herbicidal effects against Hotarui (pot test, granules); type: in vivo; conditions: 25 days
[3] = test system: Mizugayatsuri (Cyperus serotinus); test: Experiment 2: herbicidal effects against Mizugayatsuri (pot test, granules); type: in vivo; conditions: 25 days
[4] = Experiment 3: acute toxicity to fish; type: in vivo, Black-carp fry; conditions: carp, water; for LC50 at 48 h: read-out: Median lethal concentration TLm (48hrs); for LC50 at 96 h: read-out: Median lethal concentration TLm (96hrs)
Protocol: With respect to the compounds according to the present invention and the comparative compounds (Compound 10, Compound 12 and Compound 13), there were conducted tests on acute toxicity to carps.
In 25-liter water tanks made of glass was charged 20 liters of water. 12 Black-carp fry were released to each of the water tanks and bred while feeding for 7 days. Then, the whole quantity of water in each of the tanks was replaced with fresh water, and feeding to the carps was stopped. After three days, a prescribed amount of 1 weight % solution of a test compound in acetone was added to water in the water tank.
The number of survival fish in each tank was counted after 24 hours, 48 hours and 96 hours, successively.
The TLm (median tolerance limit=lethal concentration 50%) was determined by the Doudorff's method (Sewage & Ind. Wastes 23 (1951) 1380-1397).

[5] = Experiment 4: subacute toxicity to fish; type: in vivo, 2-year-old carps; conditions: carp, water; 0.2 ppm; 3 weeks; read-out: Survival rate after 3 weeks
Protocol: (§1) With respect to the compounds according to the present invention and the comparative compounds listed in Table 4, there were conducted tests on subacute toxicity to 2-year-old carps having an average weight of 20 g.
(§2) Ten 2-year-old carps were released in each of 25-liter water tanks equipped with an air-blowing apparatus and acclimatized to the surroundings while feeding for 10 days. Water in each of the water tanks was continuously replaced with fresh water so that the residence time of water in the water tanks is 6 hours. Each test compound was added to a predetermined quantity of supply water to prepare a 0.2 ppm aqueous solution of each compound, and each of the aqueous solutions was continuously added to the water in the tank. After three weeks, the hematocrit values of all the survival carps were determined. The hematocrit value used herein is intended to mean a volume percentage of erythrocyte contained in the blood.

carps = test: Experiment 4: subacute toxicity to fish; type: in vivo, 2-year-old carps; conditions: for Average Hematocrit Value of survival fish / subacute toxicity to carps (in words) / survival of carps (in words) / symptoms of anemia in carps (in words): 0.2 ppm, 3 weeks
Protocol: as §1, §2

paddy field weeds = test: Experiment 2: herbicidal effects against paddy field weeds, overall; type: in vivo; conditions: compared with Molinate (Compound 13)
rice plants [6] = conditions: in vivo
rice plants [7] = test: Experiment 2: phytotoxicity to rice plants (pot test, granules); conditions: for phytotoxicity rice plant: 25 days
rice plants [8] = conditions: in vivo; remark: listed apart in the source
[9] = 1.5 leaf-stage of barnyard grass, 150 g/10a., 25 days
[10] = 1.5 leaf-stage of barnyard grass, 300 g/10a., 25 days
[11] = 1.5 leaf-stage of barnyard grass, 600 g/10a., 25 days
[12] = 3 leaf-stage of barnyard grass, 150 g/10a., 25 days
[13] = 3 leaf-stage of barnyard grass, 300 g/10a., 25 days
[14] = 3 leaf-stage of barnyard grass, 600 g/10a., 25 days

| Structure (SMILES) | herbicidal activity (barnyard grass) (barnyard grass; 150 g/10a.) | herbicidal activity (barnyard grass) (barnyard grass; 300 g/10a.) | herbicidal activity (barnyard grass) (barnyard grass; 600 g/10a.) | Herbicidal activity broad-leaf weeds (broad-leaf weeds; 150 g/10a.) | Herbicidal activity broad-leaf weeds (broad-leaf weeds; 300 g/10a.) | Herbicidal activity broad-leaf weeds (broad-leaf weeds; 600 g/10a.) | Herbicidal activity Hotarui (Scirpus juncoides) ([2]; 150 g/10a.) | Herbicidal activity Hotarui (Scirpus juncoides) ([2]; 300 g/10a.) | Herbicidal activity Hotarui (Scirpus juncoides) ([2]; 600 g/10a.) | Herbicidal activity Mizugayatsuri (Cyperus serotinus) ([3]; 150 g/10a.) | Herbicidal activity Mizugayatsuri (Cyperus serotinus) ([3]; 300 g/10a.) | Herbicidal activity Mizugayatsuri (Cyperus serotinus) ([3]; 600 g/10a.) | LC50 at 48 h [4] [µg/mL] | LC50 at 96 h [4] [µg/mL] | survival at 504 h [5] [%] | Average Hematocrit Value of survival fish (carps) [%] | subacute toxicity to carps (in words) (carps) | survival of carps (in words) (carps) | symptoms of anemia in carps (in words) (carps) | herbicidal activity (barnyard grass) [1, 9] | further results |
| --- | --- | --- | --- | --- | --- | --- | --- | --- | --- | --- | --- | --- | --- | --- | --- | --- | --- | --- | --- | --- | --- |
| CCN(CC)C(=O)SCCCCl [Compound 10, reference compound] | 5 (more than 90%) | 5 (more than 90%) | 5 (more than 90%) | 5 (more than 90%) | 5 (more than 90%) | 5 (more than 90%) | 4 (70 to 89%) | 4 (70 to 89%) | 5 (more than 90%) | 4 (70 to 89%) | 4 (70 to 89%) | 5 (more than 90%) | > 20 | 18 (≈ 85.8 µM) | 80 | 16 | high subacute toxicity to carps | extremely low | remarkable symptons of anemia | – | herbicidal activity (barnyard grass) ([1]; in vivo): 5 (key: 5: more than 90%; 4: 70 to 89%; 3: 50 to 69%; 2: 30 to 49%; 10 to 29%; less than 10%); herbicidal activity (in words) ([1]; in vivo): sufficient herbicidal activities; herbicidal activity (in words) (paddy field weeds): excellent herbicidal activities; phytotoxicity rice plant (rice plants [6]): 0 (key: 5: more than 90%; 4: 70 to 89%; 3: 50 to 69%; 2: 30 to 49%; 10 to 29%; less than 10%); harmful effects to rice plants (in words) (rice plants [7]): without harmful effects to rice plants; phytotoxicity rice plant (rice plants [7]; 150 g/10a.): 0 (less than 10%); phytotoxicity rice plant (rice plants [7]; 300 g/10a.): 0 (less than 10%); phytotoxicity rice plant (rice plants [7]; 600 g/10a.): 0 (less than 10%) |
| CC1CCC(C)CN(C(=O)SCCCCl)C1 (stereo not drawn) [Compound 6, S-(3-chloropropyl)-3,6-dimethyl-hexahydro-1H-azepine-1-carbothioate] | 5 (more than 90%) | 5 (more than 90%) | 5 (more than 90%) | 4 (70 to 89%) | 5 (more than 90%) | 5 (more than 90%) | 4 (70 to 89%) | 5 (more than 90%) | 5 (more than 90%) | 3 (50 to 69%) | 4 (70 to 89%) | 5 (more than 90%) | 4.4 (≈ 16.7 µM) | 3.7 (≈ 14 µM) | 100 | 34 | – | – | – | 5 (more than 90%) | herbicidal activity (barnyard grass) [1, 10]: 5 (more than 90%); herbicidal activity (barnyard grass) [1, 11]: 5 (more than 90%); herbicidal activity (barnyard grass) [1, 12]: 5 (more than 90%); herbicidal activity (barnyard grass) [1, 13]: 5 (more than 90%); herbicidal activity (barnyard grass) [1, 14]: 5 (more than 90%) |
| CCSC(=O)N1CCCCCC1 [Compound 13, S-ethyl-hexahydro-1H-azepine-1-carbothioate, reference compound] | 3 (50 to 69%) | 4 (70 to 89%) | 5 (more than 90%) | 1 (10 to 29%) | 2 (30 to 49%) | 3 (50 to 69%) | 0 (less than 10%) | 1 (10 to 29%) | 2 (30 to 49%) | 0 (less than 10%) | 1 (10 to 29%) | 1 (10 to 29%) | 34 (≈ 182 µM) | – | 50 | 25 | high subacute toxicity to carps | extremely low | remarkable symptons of anemia | – | herbicidal activity (barnyard grass) ([1]; in vivo): 5 (key: 5: more than 90%; 4: 70 to 89%; 3: 50 to 69%; 2: 30 to 49%; 10 to 29%; less than 10%) and 4 (key: 5: more than 90%; 4: 70 to 89%; 3: 50 to 69%; 2: 30 to 49%; 10 to 29%; less than 10%) and 3 (key: 5: more than 90%; 4: 70 to 89%; 3: 50 to 69%; 2: 30 to 49%; 10 to 29%; less than 10%); subacute anemia symptoms in fish (in words) (carps; general statement): subacute anemia symptoms in fish; phytotoxicity rice plant (rice plants [7]; 150 g/10a.): 0 (less than 10%); phytotoxicity rice plant (rice plants [7]; 300 g/10a.): 0 (less than 10%); phytotoxicity rice plant (rice plants [7]; 600 g/10a.): 2 (30 to 49%) |
| CC1CCCCN1C(=O)SCCCCl (centres unmarked) [Compound 12, reference compound] | 5 (more than 90%) | 5 (more than 90%) | 5 (more than 90%) | 5 (more than 90%) | 5 (more than 90%) | 5 (more than 90%) | 4 (70 to 89%) | 5 (more than 90%) | 5 (more than 90%) | 4 (70 to 89%) | 4 (70 to 89%) | 5 (more than 90%) | < 0.5 | – | 70 | 19 | high subacute toxicity to carps | extremely low | remarkable symptons of anemia | 5 (more than 90%) | herbicidal activity (barnyard grass) [1, 10]: 5 (more than 90%); herbicidal activity (barnyard grass) [1, 11]: 5 (more than 90%); herbicidal activity (barnyard grass) [1, 12]: 5 (more than 90%); herbicidal activity (barnyard grass) [1, 13]: 5 (more than 90%); herbicidal activity (barnyard grass) [1, 14]: 5 (more than 90%); herbicidal activity (in words) ([1]; barnyard grass): sufficient herbicidal activities; LC50 at 24 h ([4]; 24 hrs, read-out: Median lethal concentration TLm (24hrs)): 1 µg/mL (≈ 4.24 µM); herbicidal activity (in words) (paddy field weeds): excellent herbicidal activities; harmful effects to rice plants (in words) (rice plants [8]): without harmful effects to rice plants |
| CC1CCCCN1C(=O)SCCCCCl (stereo not drawn) [Compound 1, S-(4-chlorobutyl)-(2-methyl)-piperidine-1-carbothioate] | 5 (more than 90%) | 5 (more than 90%) | 5 (more than 90%) | 5 (more than 90%) | 5 (more than 90%) | 5 (more than 90%) | 4 (70 to 89%) | 5 (more than 90%) | 5 (more than 90%) | 4 (70 to 89%) | 4 (70 to 89%) | 5 (more than 90%) | 11 (≈ 44 µM) | 10 (≈ 40 µM) | 100 | 30 | – | – | – | 5 (more than 90%) | herbicidal activity (barnyard grass) [1, 10]: 5 (more than 90%); herbicidal activity (barnyard grass) [1, 11]: 5 (more than 90%); herbicidal activity (barnyard grass) [1, 12]: 5 (more than 90%); herbicidal activity (barnyard grass) [1, 13]: 5 (more than 90%); herbicidal activity (barnyard grass) [1, 14]: 5 (more than 90%) |
